According to patent publication US7772245B2, “Inhibitors of histone deacetylase” (Miikana Therapeutics, Inc., priority 2005, dated 2010):

What was measured:
[1] = test system: HDAC; assay: In vitro fluorescent histone deacetylase assay (Biomol HDAC fluorescent activity kit, HeLa cell nuclear extract); assay type: biochemical; conditions: 100 μM compound; HeLa cell nuclear extract as source of HDAC activity; 50 μM substrate, 10 min at room temperature
Summary of the method: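 HeLa nuclear extract as HDAC source with fluorogenic substrate at 50 μM final, reacting 10 min at room temperature before stop. Compounds serially diluted in assay buffer, final DMSO ≤2%; fluorescence read at ex 355 nm / em 460 nm.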

[2] = test system: HCT116 cells; assay: Whole cell cytotoxicity assay: Sulforhodamine B; assay type: cell-based; conditions: Homo sapiens, HCT-116; 100 μM compound; 48 hours incubation with drug; Sulforhodamine B staining; read-out: % Inhibition of HCT116 cell growth @ 100 μM

SMILES	% Inhibition of HDAC @ 100 μM [1] [%]	inhibition at 100 µM [2] [%]
O=C(NO)c1cnc(N2CCc3[nH]c4ccc(-c5cccc(CN6CCNCC6)c5)cc4c3C2)nc1 [Example 99, N-hydroxy-2-{8-[3-(piperazin-1-ylmethyl)phenyl]-1,3,4,5-tetrahydro-2H-pyrido[4,3-b]indol-2-yl}pyrimidine-5-carboxamide]	99.9	93.8
CS(=O)(=O)N1CCN(Cc2cccc(-c3ccc4[nH]c5c(c4c3)CN(c3ncc(C(=O)NO)cn3)CC5)c2)CC1 [Example 100, N-hydroxy-2-{8-[3-((4-(methylsulfonyl)piperazin-1-yl)methyl)phenyl]-1,3,4,5-tetrahydro-2H-pyrido[4,3-b]indol-2-yl}pyrimidine-5-carboxamide]	100	96.6
CC(=O)N1CCN(Cc2cccc(-c3ccc4[nH]c5c(c4c3)CN(c3ncc(C(=O)NO)cn3)CC5)c2)CC1 [Example 101, N-hydroxy-2-{8-[3-((4-acetylpiperazin-1-yl)methyl)phenyl]-1,3,4,5-tetrahydro-2H-pyrido[4,3-b]indol-2-yl}pyrimidine-5-carboxamide]	100	97.9
O=C(NO)c1cnc(N2CCc3[nH]c4ccc(-c5ccc(CN6CCOCC6)cc5)cc4c3C2)nc1 [Example 104, N-hydroxy-2-{8-[4-(morpholin-4-ylmethyl)phenyl]-1,3,4,5-tetrahydro-2H-pyrido[4,3-b]indol-2-yl}pyrimidine-5-carboxamide]	100	92
CN1CCN(Cc2ccc(-c3ccc4[nH]c5c(c4c3)CN(c3ncc(C(=O)NO)cn3)CC5)cc2)CC1 [Example 106, N-hydroxy-2-{8-[4-((4-methylpiperazin-1-yl)methyl)phenyl]-1,3,4,5-tetrahydro-2H-pyrido[4,3-b]indol-2-yl}pyrimidine-5-carboxamide]	99.9	98.3
O=C(NO)c1cnc(N2CCc3[nH]c4ccc(-c5ccc(CO)cc5)cc4c3C2)nc1 [Example 107, N-hydroxy-2-{8-[4-(hydroxymethyl)phenyl]-1,3,4,5-tetrahydro-2H-pyrido[4,3-b]indol-2-yl}pyrimidine-5-carboxamide]	99.9	92.7
CN1CCN(Cc2ccc(-c3ccc4[nH]c5c(c4c3)CN(c3ncc(C(=O)NO)cn3)CC5)o2)CC1 [Example 108, N-hydroxy-2-{8-[5-((4-methylpiperazin-1-yl)methyl)-2-furyl]-1,3,4,5-tetrahydro-2H-pyrido[4,3-b]indol-2-yl}pyrimidine-5-carboxamide]	100	99.1
O=C(NO)c1cnc(N2CCc3[nH]c4ccc(-c5ccc(CN6CCOCC6)o5)cc4c3C2)nc1 [Example 109, N-hydroxy-2-{8-[5-(morpholin-4-yl)methyl-2-furyl]-1,3,4,5-tetrahydro-2H-pyrido[4,3-b]indol-2-yl}pyrimidine-5-carboxamide]	100	91.7
CN1CCN(Cc2ccc(-c3ccc4[nH]c5c(c4c3)CN(c3ncc(C(=O)NO)cn3)CC5)s2)CC1 [Example 110, N-hydroxy-2-{8-[5-((4-methylpiperazin-1-yl)methyl)-thien-2-yl]-1,3,4,5-tetrahydro-2H-pyrido[4,3-b]indol-2-yl}pyrimidine-5-carboxamide]	100	98.7
O=C(NO)c1cnc(N2CCc3[nH]c4cc(Br)ccc4c3C2)nc1 [Example 112, N-hydroxy-2-(7-bromo-1,3,4,5-tetrahydro-2H-pyrido[4,3-b]indol-2-yl)pyrimidine-5-carboxamide]	99.9	98.7
COc1ccc2[nH]c3c(c2c1)CCN(c1ncc(C(=O)NO)cn1)CC3 [Example 113, N-hydroxy-2-(9-methoxy-1,4,5,6-tetrahydroazepino[4,5-b]indol-3(2H)-1-yl)pyrimidine-5-carboxamide]	100	98.7
O=C(NO)c1cnc(N2CCc3[nH]c4ccc(-c5cccc(CN6CCOCC6)c5)cc4c3CC2)nc1 [Example 116, N-hydroxy-2-(9-[3-(morpholin-4-ylmethy)phenyl]-1,4,5,6-tetrahydroazepino[4,5-b]indol-3(2H)-1-yl)pyrimidine-5-carboxamide]	100	98.6
CN1CCN(Cc2cccc(-c3ccc4[nH]c5c(c4c3)CCN(c3ncc(C(=O)NO)cn3)CC5)c2)CC1 [Example 117, N-hydroxy-2-(9-[3-((4-methylpiperazin-1-yl)methy)phenyl]-1,4,5,6-tetrahydroazepino[4,5-b]indol-3(2H)-1-yl)pyrimidine-5-carboxamide]	99.8	98.6
O=C(NO)c1cnc(N2CCc3c(sc4ccccc34)C2)nc1 [Example 118, 2-(3,4-dihydro[1]benzothieno[2,3-c]pyridin-2(1H)-yl)-N-hydroxypyrimidine-5-carboxamide]	99.7	98.9
O=C(NO)c1cnc(N2CCc3c(oc4ccccc34)C2)nc1 [Example 119, 2-(3,4-dihydro[1]benzofuro[2,3-c]pyridin-2(1)-yl)-N-hydroxypyrimidine-5-carboxamide]	99.3	98.6
O=C(NO)c1cnc(N2CCc3[nH]c4cc(-c5ccccc5)ccc4c3C2)nc1 [Example 120, N-hydroxy-2-{7-phenyl-1,3,4,5-tetrahydro-2H-pyrido[4,3-b]indol-2-yl}pyrimidine-5-carboxamide]	99.6	97.6
O=C(NO)c1cnc(N2CCc3[nH]c4ccccc4c(=O)c3C2)nc1 [Example 122, N-hydroxy-2-(10-oxo-3,4,5,10-tetrahydrobenzo[b]-1,6-naphthyridin-2(1H)-yl)pyrimidine-5-carboxamide]	100	44.4
CN1CCN(Cc2ccc3[nH]c4c(c3c2)CN(c2ncc(C(=O)NO)cn2)CC4)CC1 [Example 123, N-hydroxy-2-{8-[(4-methylpiperazin-1-yl)methyl]-1,3,4,5-tetrahydro-2H-pyrido[4,3-b]indol-2-yl}pyrimidine-5-carboxamide]	100	97
